For this experiment, the target named is T1, human V1a receptor (Homo sapiens, UniProt P37288).
T1 construct: expressed in transfected cells; host or cells: HEK293 cells, transiently transfected; cell membranes
T1 sequence (P37288 whole entry): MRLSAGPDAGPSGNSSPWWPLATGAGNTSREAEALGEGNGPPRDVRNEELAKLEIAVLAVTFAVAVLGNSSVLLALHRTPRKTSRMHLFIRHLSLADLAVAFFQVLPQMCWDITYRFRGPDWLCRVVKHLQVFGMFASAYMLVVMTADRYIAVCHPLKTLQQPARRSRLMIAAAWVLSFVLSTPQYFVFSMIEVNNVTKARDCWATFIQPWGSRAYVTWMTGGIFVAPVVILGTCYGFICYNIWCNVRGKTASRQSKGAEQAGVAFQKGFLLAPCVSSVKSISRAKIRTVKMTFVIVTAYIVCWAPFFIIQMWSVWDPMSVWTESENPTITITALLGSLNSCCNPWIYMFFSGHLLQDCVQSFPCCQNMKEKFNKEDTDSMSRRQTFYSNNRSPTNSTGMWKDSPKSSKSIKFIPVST
Briefly: human V1a receptor binding studies (3H-Vasopressin, SPA beads). The note with it: membranes of HEK293 cells transiently transfected with human V1a receptor, Ki by Cheng-Prussoff from IC50, read-out: pKi hV1a (converted). The method, then:
The human V1a receptor was cloned by RT-PCR from total human liver RNA. The coding sequence was subcloned in an expression vector after sequencing to confirm the identity of the amplified sequence. […] Cell membranes were prepared from HEK293 cells transiently transfected with the expression vector and grown in 20 liter fermenters with the following protocol.
50 g of cells are re-suspended in 30 ml freshly prepared ice cold Lysis buffer (50 mM HEPES, 1 mM EDTA, 10 mM MgCl2 adjusted to pH=7.4+complete cocktail of protease inhibitor (Roche Diagnostics)). Homogenized with Polytron for 1 min and sonicated on ice for 2×2 minutes at 80% intensity (Vibracell sonicator). The preparation is centrifuged 20 min at 500 g at 4° C., the pellet is discarded and the supernatant centrifuged 1 hour at 43′000 g at 4° C. (19′000 rpm). The pellet is re-suspended in 12.5 ml Lysis buffer+12.5 ml Sucrose 20% and homogenized using a Polytron for 1-2 min. The protein concentration is determined by the Bradford method and aliquots are stored at −80° C. until use. For binding studies 60 mg Yttrium silicate SPA beads (Amersham) are mixed with an aliquot of membrane in binding buffer (50 mM Tris, 120 mM NaCl, 5 mM KCl, 2 mM CaCl2, 10 mM MgCl2) for 15 minutes with mixing. 50 μl of bead/membrane mixture is then added to each well of a 96 well plate, followed by 50 μl of 4 nM 3H-Vasopressin (American Radiolabeled Chemicals). For total binding measurement 100 μl of binding buffer are added to the respective wells, for non-specific binding 100 μl of […] cold vasopressin and for compound testing 100 μl of a serial dilution of each compound in 2% DMSO. The plate is incubated 1 h at room temperature, centrifuged 1 min at 1000 g and counted on a Packard Top-Count. Non-specific binding counts are subtracted from each well and data is normalized to the maximum specific binding set at 100%. To calculate an IC 50 the curve is fitted using a non-linear regression model (XLfit) and the Ki is calculated using the Cheng-Prussoff equation.
`O=C1N=C(N2CCC3(CC2)OCc2ccccc23)OC1C(O)c1ccccc1` (single isomer, unassigned) [Example 36, 5-(Hydroxy(phenyl)methyl)-2-(1′H,3H-spiro[2-benzofuran-1,4′-piperidin]-1′-yl)-1,3-oxazol-4(5H)-one diastereomer a, enantiomer A]: the Ki is 0.0316 µM.

`O=C1N=C(N2CCC3(CC2)OCc2ccccc23)OC1C(O)c1ccccc1` (single isomer, unassigned) [Example 37, 5-(Hydroxy(phenyl)methyl)-2-(1′H,3H-spiro[2-benzofuran-1,4′-piperidin]-1′-yl)-1,3-oxazol-4(5H)-one diastereomer a, enantiomer B]: the Ki was 0.126 µM.

As to `O=C1N=C(N2CCC3(CC2)OCc2ccccc23)OC1C(O)c1ccccc1` (single isomer, unassigned) [Example 38, 5-(Hydroxy(phenyl)methyl)-2-(1′H,3H-spiro[2-benzofuran-1,4′-piperidin]-1′-yl)-1,3-oxazol-4(5H)-one diastereomer b, enantiomer A], the Ki is 0.794 µM.

For `O=C1N=C(N2CCC3(CC2)OCc2ccccc23)OC1C(O)c1ccccc1` (single isomer, unassigned) [Example 39, 5-(Hydroxy(phenyl)methyl)-2-(1′H,3H-spiro[2-benzofuran-1,4′-piperidin]-1′-yl)-1,3-oxazol-4(5H)-one diastereomer b, enantiomer B], the Ki is 0.126 µM.

As to `O=C1N=C(N2CCC3(CC2)OCc2ccccc23)OC1C(F)c1ccc(Cl)cc1` (single isomer, unassigned) [Example 46, 5-((4-Chlorophenyl)fluoromethyl)-2-(1′H,3H-spiro[2-benzofuran-1,4′-piperidin]-1′-yl)-1,3-oxazol-4(5H)-one diastereomer a, enantiomer A], the Ki is 0.0316 µM.

Regarding `O=C1N=C(N2CCC3(CC2)OCc2ccccc23)OC1C(F)c1ccc(Cl)cc1` (single isomer, unassigned) [Example 47, 5-((4-Chlorophenyl)fluoromethyl)-2-(1′H,3H-spiro[2-benzofuran-1,4′-piperidin]-1′-yl)-1,3-oxazol-4(5H)-one diastereomer a, enantiomer B], the Ki was 0.02 µM.

Turning to `O=C1N=C(N2CCC3(CC2)OCc2ccccc23)OC1C(F)c1ccc(Cl)cc1` (single isomer, unassigned) [Example 48, 5-((4-Chlorophenyl)fluoromethyl)-2-(1′H,3H-spiro[2-benzofuran-1,4′-piperidin]-1′-yl)-1,3-oxazol-4(5H)-one diastereomer b, enantiomer A], the Ki was 0.0398 µM.

In the case of `O=C1N=C(N2CCC3(CC2)OCc2ccccc23)OC1C(F)c1ccc(Cl)cc1` (single isomer, unassigned) [Example 49, 5-((4-Chlorophenyl)fluoromethyl)-2-(1′H,3H-spiro[2-benzofuran-1,4′-piperidin]-1′-yl)-1,3-oxazol-4(5H)-one diastereomer b, enantiomer B], the Ki was 0.002 µM.

On to `O=C1OC2(CCN(C3=NC(=O)C(C(O)c4ccc(Cl)cc4)O3)CC2)c2ccccc21` (single isomer, unassigned) [Example 50, 1′-{-5-[(4-Chlorophenyl)(hydroxy)methyl]-4-oxo-4,5-dihydro-1,3-oxazol-2-yl}-3H-spiro[2-benzofuran-1,4′-piperidin]-3-one diastereomer a, enantiomer A], for which the Ki was 0.02 µM.

Regarding `O=C1OC2(CCN(C3=NC(=O)C(C(O)c4ccc(Cl)cc4)O3)CC2)c2ccccc21` (single isomer, unassigned) [Example 51, 1′-{-5-[(4-Chlorophenyl)(hydroxy)methyl]-4-oxo-4,5-dihydro-1,3-oxazol-2-yl}-3H-spiro[2-benzofuran-1,4′-piperidin]-3-one diastereomer a, enantiomer B], the Ki was 0.158 µM.

Regarding `O=C1OC2(CCN(C3=NC(=O)C(C(O)c4ccc(Cl)cc4)O3)CC2)c2ccccc21` (single isomer, unassigned) [Example 52, 1′-{-5-[(4-Chlorophenyl)(hydroxy)methyl]-4-oxo-4,5-dihydro-1,3-oxazol-2-yl}-3H-spiro[2-benzofuran-1,4′-piperidin]-3-one diastereomer b, enantiomer A], the Ki was 0.631 µM.

In the case of `O=C1OC2(CCN(C3=NC(=O)C(C(O)c4ccc(Cl)cc4)O3)CC2)c2ccccc21` (single isomer, unassigned) [Example 53, 1′-{-5-[(4-Chlorophenyl)(hydroxy)methyl]-4-oxo-4,5-dihydro-1,3-oxazol-2-yl}-3H-spiro[2-benzofuran-1,4′-piperidin]-3-one diastereomer b, enantiomer B], the Ki is 0.158 µM.

For the compound `CCCCC1OC(N2CCC3(CC2)OCc2ccccc23)=NC1=O` (single isomer, unassigned; (+)) [Example 4, (+)-5-Butyl-2-(1′H,3H-spiro[2-benzofuran-1,4′-piperidin]-1′-yl)-1,3-oxazol-4(5H)-one], the Ki is 0.00501 µM.

Take `CCCCC1(C)OC(N2CCC3(CC2)OCc2ccccc23)=NC1=O` (single isomer, unassigned; (+)) [Example 67, (+)-5-Butyl-5-methyl-2-(1′H,3H-spiro[2-benzofuran-1,4′-piperidin]-1′-yl)-1,3-oxazol-4(5H)-one]: the Ki was 0.0251 µM.

For the compound `CC1(Cc2ccccc2)OC(N2CCC3(CC2)OCc2ccccc23)=NC1=O` (single isomer, unassigned; (+)) [Example 70, (+)-5-Benzyl-5-methyl-2-(1′H,3H-spiro[2-benzofuran-1,4′-piperidin]-1′-yl)-1,3-oxazol-4(5H)-one], the Ki is 0.00794 µM.

Regarding `CC1(CC2CCCC2)OC(N2CCC3(CC2)OCc2ccccc23)=NC1=O` (single isomer, unassigned; (+)) [Example 77, (+)-5-(Cyclopentylmethyl)-5-methyl-2-(1′H,3H-spiro[2-benzofuran-1,4′-piperidin]-1′-yl)-1,3-oxazol-4(5H)-one], the Ki is 0.00251 µM.

For `CC1(Cc2ccc(Cl)nc2)OC(N2CCC3(CC2)OCc2ccccc23)=NC1=O` (single isomer, unassigned; (+)) [Example 84, (+)-5-[(6-Chloropyridin-3-yl)methyl]-5-methyl-2-(1′H,3H-spiro[2-benzofuran-1,4′-piperidin]-1′-yl)-1,3-oxazol-4(5H)-one], the Ki is 0.501 µM.

Consider `CC1(Cc2ccc(Cl)s2)OC(N2CCC3(CC2)OCc2ccccc23)=NC1=O` (single isomer, unassigned; (+)) [Example 86, (+)-5-[(5-Chlorothiophen-2-yl)methyl]-5-methyl-2-(1′H,3H-spiro[2-benzofuran-1,4′-piperidin]-1′-yl)-1,3-oxazol-4(5H)-one], for which the Ki is 0.00126 µM.

`CCOCC1(C)OC(N2CCC3(CC2)OCc2ccccc23)=NC1=O` (single isomer, unassigned; (+)) [Example 96, (+)-5-(Ethoxymethyl)-5-methyl-2-(1′H,3H-spiro[2-benzofuran-1,4′-piperidin]-1′-yl)-1,3-oxazol-4(5H)-one]: the Ki is 0.251 µM.

In the case of `CCCCC1OC(N2CCC3(CC2)OCc2ccccc23)=NC1=O` (single isomer, unassigned; (-)) [Example 3, (−)-5-Butyl-2-(1′H,3H-spiro[2-benzofuran-1,4′-piperidin]-1′-yl)-1,3-oxazol-4(5H)-one], the Ki is 0.0501 µM.

Regarding `CCCCC1(C)OC(N2CCC3(CC2)OCc2ccccc23)=NC1=O` (single isomer, unassigned; (-)) [Example 68, (−)-5-Butyl-5-methyl-2-(1′H,3H-spiro[2-benzofuran-1,4′-piperidin]-1′-yl)-1,3-oxazol-4(5H)-one], the Ki is 0.2 µM.

For the compound `CC1(Cc2ccccc2)OC(N2CCC3(CC2)OCc2ccccc23)=NC1=O` (single isomer, unassigned; (-)) [Example 71, (−)-5-Benzyl-5-methyl-2-(1′H,3H-spiro[2-benzofuran-1,4′-piperidin]-1′-yl)-1,3-oxazol-4(5H)-one], the Ki is 0.0794 µM.

As for `CC1(CC2CCCC2)OC(N2CCC3(CC2)OCc2ccccc23)=NC1=O` (single isomer, unassigned; (-)) [Example 78, (−)-5-(Cyclopentylmethyl)-5-methyl-2-(1′H,3H-spiro[2-benzofuran-1,4′-piperidin]-1′-yl)-1,3-oxazol-4(5H)-one], the Ki is 0.1 µM.

With `CC1(Cc2ccc(Cl)nc2)OC(N2CCC3(CC2)OCc2ccccc23)=NC1=O` (single isomer, unassigned; (-)) [Example 83, (−)-5-[(6-Chloropyridin-3-yl)methyl]-5-methyl-2-(1′H,3H-spiro[2-benzofuran-1,4′-piperidin]-1′-yl)-1,3-oxazol-4(5H)-one], the Ki was 0.0398 µM.

(Values after patent publication US9828385B2, “Spiro-oxazolones” (Hoffmann-La Roche Inc., priority 2014, dated 2017).)
